Assay results published in patent publication US4358448A, “N-substituted thiazolyl derivatives of oxy-imino-substituted cephalosporins useful as anti-bacterial agents” (Farmitalia Carlo Erba S.p.A., priority 1979, dated 1982).

Key:
[1] = approximate acute toxicity in the mouse, single intravenous administration; conditions: in vivo, single intravenous administrations of increasing doses, measured on the seventh day
Description: The toxicity of the compounds of the invention is quite negligible and therefore they can be safely used in therapy.

[2] = test system: Bacteroides fragilis VPI 9032; assay: antibacterial activity against Bacteroides fragilis relative to Cefotaxime; assay type: cell-based; conditions: in words
[3] = test system: most Gram-negative bacteria; assay: antibacterial activity against most Gram-negative bacteria, relative to reference cephalosporins; assay type: cell-based
streptococci = assay: antibacterial activity against streptococci, relative to reference cephalosporin; assay type: cell-based
[4] = test system: clinical isolates of indole-positive Proteus; assay: antibacterial activity against clinical isolates of indole-positive Proteus relative to HR-756; assay type: cell-based; conditions: in words
[5] = test system: Escherichia coli G, Klebsiella pneumoniae ATCC 10031, Proteus mirabilis ATCC 9921, Escherichia coli Tem., Haemophilus influenzae, Salmonella typhi Watson and …; assay: in vivo tests in infected mice; conditions: in words
[6] = test system: beta-lactamase producers organisms, such as Klebsiella aerogenes 1082 E, Enterobacter cloacae P 99, Escherichia coli Tem; assay: antibacterial activity against beta-lactamase producers organisms; assay type: cell-based; conditions: in words

Structure (SMILES): CO/N=C(\C(=O)N[C@@H]1C(=O)N2C(C(=O)O)=C(CSc3ccc4nnnn4n3)CS[C@H]12)c1csc(=N)n1O [FCE 20635, 7β-[2-(2-imino-3-hydroxy-4-thiazolinyl)-2-methoxyimino-acetamido]-3-[(tetrazolo[1,5-b]pyridazin-6-yl)-thiomethyl]-3-cephem-4-carboxylic acid (syn-isomer)]
- LD50 at 168 h [1]: > 2000 mg/kg
- activity compared with Cefotaxime [2]: at least as active as Cefotaxime
- times more active than Cefazolin [3]: about 30 times
- times more active than Cefuroxime [3]: about 40 times
- times more active than Cefazolin (streptococci): about 4 times
- activity compared with HR-756 [4]: more active than HR-756
- activity in vivo tests [5]: high activity
- activity against most beta-lactamase producers organisms [6]: high activity
